Earlier results, collected in US20210322306A1, “ORAL DISSOLVABLE FILM WITH HIGH LOAD OF POLYMERIC BINDER” (CURE Pharmaceutical Holding Corp., priority 2020, published 2021).

Legend:
[1] = neat binder
[2] = neat binder; remark: listed apart in the source

Polymeric Binder: Glass Transition Temperature (Tg) (determined by differential scanning calorimetry (DSC)) [1]: 102 °C | Polymeric Binder: Glass Transition Temperature (Tg) (determined by thermomechanical analysis (TMA)) [2]: 95 °C
SMILES: OC[C@H]1O[C@@H](O[C@H]2[C@H](O)[C@@H](O)C(O)O[C@@H]2CO)[C@H](O)[C@@H](O)[C@H]1O (some centres unmarked) [Lactose]
